From ChEMBL document CHEMBL6114992, “Design, synthesis, biological evaluation, and mechanism of action of new pyrazines as anticancer agents in vitro and in vivo” (Bioorg Med Chem, 2025)

How the values were obtained:
Assay type in all cases: functional, cell-based
U-937 = assay: Antiproliferative activity against human U-937 cells assessed as inhibition of cell growth incubated for 72 hrs by MTT assay; settings: U-937, 72 h
THP-1 = assay: Antiproliferative activity against human THP-1 cells assessed as inhibition of cell growth incubated for 72 hrs by MTT assay; settings: THP-1, 72 h
[1] = Antiproliferative activity against human SK-OV-3/Taxol cells assessed as inhibition of cell growth incubated for 72 hrs by MTT assay; settings: SK-OV-3, 72 h
KG-1 = assay: Antiproliferative activity against human KG-1 cells assessed as inhibition of cell growth incubated for 72 hrs by MTT assay; settings: KG-1, 72 h
SK-OV-3 = assay: Antiproliferative activity against human SK-OV-3 cells assessed as inhibition of cell growth incubated for 72 hrs by MTT assay; settings: SK-OV-3, 72 h

IC50 (U-937) | IC50 (THP-1) | IC50 (SK-OV-3) | Compound | IC50 [1] | IC50 (KG-1)
13.5 µM | 17.6 µM | 3.33 µM | Cc1nccnc1C(=O)/C=C/c1ccc(F)cc1F | 2.99 µM | 6.15 µM
2.96 µM | 17 µM | 9.75 µM | Cc1nccnc1C(=O)/C=C/c1ccc(Cl)cc1 | 11.8 µM | 10.4 µM
11.5 µM | 10.3 µM | 10.9 µM | O=C(/C=C/c1cccc(Cl)c1)c1cnccn1 | 10.6 µM | 9.97 µM
1.23 µM | 1.95 µM | 3.22 µM | Cc1nccnc1C(=O)/C=C/c1ccccc1Br | 2.72 µM | 2.75 µM
23 µM | 19.9 µM | 10.1 µM | Cc1ccc(/C=C/C(=O)c2cnccn2)cc1 | 16.6 µM | 11.4 µM
6.18 µM | 10.1 µM | > 50 µM | O=C(/C=C/c1cccs1)c1cnccn1 | > 50 µM | 11.9 µM
23.6 µM | 15.7 µM | 31.2 µM | Cc1ccccc1/C=C/C(=O)c1cnccn1 | 33.7 µM | 15.2 µM
5.48 µM | 5.36 µM | 3.74 µM | CCc1nccnc1C(=O)/C=C/c1ccc2c(c1)OC(F)(F)O2 | 3.72 µM | 9.09 µM
39.7 µM | > 50 µM | > 50 µM | CCc1nccnc1C(=O)/C=C/C=C/CCC=C(C)C | > 50 µM | 35.7 µM
0.62 µM | 0.98 µM | 2.53 µM | CCc1nccnc1C(=O)/C=C/c1cccc(C#N)c1 | 2.89 µM | 3.91 µM
7.95 µM | 8.36 µM | 6.71 µM | CCc1nccnc1C(=O)/C=C/c1ccc(OC)c(OC)c1 | 7.92 µM | 9.45 µM
2.3 µM | 4.7 µM | 7.08 µM | CCc1nccnc1C(=O)/C=C/c1ccc(Cl)cc1 | 6.72 µM | 3.67 µM
6.4 µM | 8.07 µM | 3.39 µM | CCN(CC)c1ccc(/C=C/C(=O)c2nccnc2C)cc1 | 8.29 µM | 7.14 µM
0.76 µM | 1.46 µM | 3.21 µM | Cc1nccnc1C(=O)/C=C/c1ccc(S(C)(=O)=O)cc1 | 3.31 µM | 4.37 µM
10.7 µM | 13.5 µM | > 50 µM | O=C(/C=C/c1cc2ccccc2o1)c1cnccn1 | > 50 µM | 9.66 µM
2.93 µM | 1.9 µM | 4.63 µM | Cc1nccnc1C(=O)/C=C/c1cc2ccccc2o1 | 1.74 µM | 3.3 µM
13.7 µM | 16 µM | 15.5 µM | CC(C)(C)c1ccc(/C=C/C(=O)c2cnccn2)cc1 | 12.5 µM | 13.4 µM
3.59 µM | 6.69 µM | 3.23 µM | CCc1nccnc1C(=O)/C=C/c1cccc(Br)c1 | 4.7 µM | 9.32 µM
22.4 µM | 14.1 µM | > 50 µM | O=C(/C=C/C=C/c1ccccc1)c1cnccn1 | > 50 µM | 22.3 µM

IC50 (U-937) | IC50 (THP-1) | IC50 (SK-OV-3) | Compound | IC50 [1] | IC50 (KG-1)
6.55 µM | 6.22 µM | 10 µM | Cc1nccnc1C(=O)/C=C/c1ccccn1 | 11.1 µM | 5.39 µM
3.43 µM | 4.91 µM | 8.68 µM | CCc1nccnc1C(=O)/C=C/c1ccccc1C | 10.8 µM | 22.9 µM
14.3 µM | 11.5 µM | 2.57 µM | Cc1nccnc1C(=O)/C=C/c1ccccc1N1CCOCC1 | 3.24 µM | 5.63 µM
5.78 µM | 3.04 µM | 5.92 µM | CCc1nccnc1C(=O)/C=C/c1ccc(C(F)(F)F)cc1 | 7.29 µM | 9.21 µM
4 µM | 14.5 µM | 11.3 µM | CCc1nccnc1C(=O)/C=C/c1cccc(Cl)c1Cl | 11.3 µM | 10.5 µM
14 µM | 8.76 µM | 14.1 µM | O=C(/C=C/c1csc2ccccc12)c1cnccn1 | 15.1 µM | 6.08 µM
22.8 µM | 19.4 µM | 29.6 µM | CC(/C=C/C(=O)c1cnccn1)=C\c1ccccc1 | 30.6 µM | 44.5 µM
8.05 µM | 15.3 µM | > 50 µM | O=C(/C=C/c1ccccc1)c1cnccn1 | > 50 µM | 10.6 µM
26.1 µM | 30.2 µM | 30.7 µM | Cc1nccnc1C(=O)/C=C/c1ccc(F)cc1 | 29.2 µM | 21.7 µM
3.9 µM | 6.01 µM | 4.72 µM | CSc1ccc(/C=C/C(=O)c2nccnc2C)cc1 | 6.8 µM | 6.84 µM
10.3 µM | 45.4 µM | 10.8 µM | Cc1nccnc1C(=O)/C=C/C=C/c1ccc(F)cc1 | 11.4 µM | 27.4 µM
16.3 µM | 20.3 µM | 28.5 µM | Cc1cccc(/C=C/C(=O)c2cnccn2)c1 | 25.9 µM | 9.84 µM
15.2 µM | 10.3 µM | 21.9 µM | COc1ccc(/C=C/C(=O)c2cnccn2)cc1 | 21.1 µM | 8.71 µM
2.38 µM | 7.23 µM | 3.11 µM | CCc1nccnc1C(=O)/C=C/c1ccc(F)cc1 | 3.5 µM | 3.57 µM
1.93 µM | 5.34 µM | 3.88 µM | CCc1nccnc1C(=O)/C=C/c1ccc(Br)cc1 | 5.93 µM | 9.31 µM
7.41 µM | 9.69 µM | 10.7 µM | N#Cc1cccc(/C=C/C(=O)c2cnccn2)c1 | 13.7 µM | 5.87 µM
10 µM | 10.3 µM | 9.89 µM | CCc1nccnc1C(=O)/C=C/c1cccs1 | 10.9 µM | 19.6 µM
1.76 µM | 2.39 µM | 2.06 µM | CCc1nccnc1C(=O)/C=C/c1csc2ccccc12 | 2.29 µM | 14.4 µM
4.79 µM | 6.55 µM | > 50 µM | COc1ccc(/C=C/C(=O)c2cnccn2)cc1OC | > 50 µM | 4.84 µM

IC50 (U-937) | IC50 (THP-1) | IC50 (SK-OV-3) | Compound | IC50 [1] | IC50 (KG-1)
14.4 µM | 20.3 µM | > 50 µM | O=C(/C=C/c1ccc2c(c1)OC(F)(F)O2)c1cnccn1 | > 50 µM | 17.3 µM
2.38 µM | 7.63 µM | 1.66 µM | Cc1nccnc1C(=O)/C=C/c1ccc(-c2ccccc2)cc1 | 1.67 µM | 3.25 µM
18.5 µM | 27.2 µM | 16.6 µM | Cc1nccnc1C(=O)/C=C/c1ccc(C(C)(C)C)cc1 | 14.2 µM | 44.1 µM
7.58 µM | 8.39 µM | 2.43 µM | O=C(/C=C/c1ccccc1N1CCOCC1)c1cnccn1 | 3.04 µM | 2.13 µM
1.23 µM | 5.95 µM | 4.69 µM | CCc1nccnc1C(=O)/C=C/c1cccc(Cl)c1 | 5.11 µM | 3.66 µM
3.23 µM | 5.23 µM | 7.57 µM | Cc1nccnc1C(=O)/C=C/c1ccc(C(F)(F)F)cc1 | 8.99 µM | 5.66 µM
4.29 µM | 2.67 µM | 7.94 µM | CCc1nccnc1C(=O)/C=C/c1ccc(SC)cc1 | 8.12 µM | 9.34 µM
6.21 µM | 5.72 µM | 4.81 µM | Cc1nccnc1C(=O)/C=C/c1ccc[nH]1 | 5.38 µM | 7.15 µM
19 µM | 12.2 µM | > 50 µM | O=C(/C=C/c1cccc(Cl)c1Cl)c1cnccn1 | > 50 µM | 54.8 µM
5.25 µM | 7.16 µM | 7.98 µM | CCc1nccnc1C(=O)/C=C/C=C/c1ccc(F)cc1 | 8.25 µM | 6.91 µM
2.46 µM | 2.23 µM | 5.62 µM | Cc1nccnc1C(=O)/C=C/c1cccc([N+](=O)[O-])c1 | 6.38 µM | 4.76 µM
1.5 µM | 2.07 µM | 4.78 µM | Cc1nccnc1C(=O)/C=C/c1csc2ccccc12 | 3.28 µM | 1.54 µM
11.9 µM | 8.3 µM | 9.72 µM | O=C(/C=C/c1ccc(C(F)(F)F)cc1)c1cnccn1 | 10.4 µM | 7.87 µM
8.19 µM | 11 µM | 13.5 µM | O=C(/C=C/c1cccc(Br)c1)c1cnccn1 | 17 µM | 23.4 µM
17.4 µM | 12.9 µM | 17.3 µM | CCc1nccnc1C(=O)/C=C/c1cc2ccccc2o1 | 16.4 µM | 22.5 µM
15 µM | 10.2 µM | 11.2 µM | CCc1nccnc1C(=O)/C=C/c1ccc(C(C)(C)C)cc1 | 12.2 µM | 22.5 µM
2.13 µM | 4.53 µM | 7.3 µM | CC(/C=C/C(=O)c1nccnc1C)=C\c1ccccc1 | 6.45 µM | 4.78 µM
5.43 µM | 1.79 µM | 5.17 µM | Cc1nccnc1C(=O)/C=C/c1ccccc1 | 5.04 µM | 1.64 µM

Compound | IC50 (U-937) | IC50 (THP-1) | IC50 (SK-OV-3) | IC50 [1] | IC50 (KG-1)
CC[C@@]1(O)C(=O)OCc2c1cc1n(c2=O)Cc2cc3ccccc3nc2-1 [CAMPTOTHECIN] | – | – | 2.56 µM | – | –
